Values of other authors in PMC10892719 (Pharmaceutics, 2024).

Target: T1, Aβ1-42 (Homo sapiens, UniProt P05067)
T1 construct: purchased Genecust, Boynes, France
Settings: thioflavin T fluorescence method; cited from earlier work

T1 sequence (P05067 672-713 limits assumed): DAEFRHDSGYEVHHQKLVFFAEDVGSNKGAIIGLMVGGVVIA

## COc1cc(/C=C/C(=O)CC(=O)/C=C/c2ccc(O)c(OC)c2)ccc1O [Curcumin, curcumin]
  Aβ42 Self-Aggreg. Inhib: 65.7%
